{"source": "paper PMC5306062", "about": "“Pharmacology and toxicology of the novel investigational agent Cantrixil (TRX-E-002-1)” (Cancer Chemotherapy and Pharmacology, 2016)", "key": {"[1]": {"tested_on": "chemo-resistant CD44+/MyD88+ OCSC clones", "assay": "Cell death in ovarian cancer stem cell clones", "assay_type": "cell-based, human", "details": "grown separately or in co-cultures", "from_the_text": "Tumour recurrence post-chemotherapy is caused by the regrowth of the surviving innately drug-resistant cancer stem cells that remain in tumour niches during and post-chemotherapy. The expansion of this chemo-resistant cancer cell population, coupled with upregulation of pro-survival pathways due to drug pressure, is thought to be responsible for the development of chemo-resistant recurrent disease. Further, the inherent heterogeneity of ovarian tumours consists of epithelial cells with varying potential for stemness, and a population of cancer cells with varying mesenchymal status and invasiveness potential. Therefore, to improve survival, a practical approach is the use of novel therapies that can induce cell death in these various subtypes of ovarian cancer cells. TRX-E-002-1 was assessed against ovarian cancer stem cell line OCSC2, characterised by their expression of stem cell markers including CD44 and […] [22]. A major characteristic of these cells is that they are drug resistant, able to form self-renewing spheroids in non-adherent culture, and recreate disseminated drug-resistant ovarian tumours that have a high degree of heterogeneity similar to the clinical profile observed in patients when inoculated into the peritoneal cavity of an immune-compromised mouse."}, "hERG current": {"biological_target": "T1, hERG current (Homo sapiens, UniProt Q12809)", "T1 construct": "expressed in transfected cells", "T1 sequence (Q12809 whole entry)": "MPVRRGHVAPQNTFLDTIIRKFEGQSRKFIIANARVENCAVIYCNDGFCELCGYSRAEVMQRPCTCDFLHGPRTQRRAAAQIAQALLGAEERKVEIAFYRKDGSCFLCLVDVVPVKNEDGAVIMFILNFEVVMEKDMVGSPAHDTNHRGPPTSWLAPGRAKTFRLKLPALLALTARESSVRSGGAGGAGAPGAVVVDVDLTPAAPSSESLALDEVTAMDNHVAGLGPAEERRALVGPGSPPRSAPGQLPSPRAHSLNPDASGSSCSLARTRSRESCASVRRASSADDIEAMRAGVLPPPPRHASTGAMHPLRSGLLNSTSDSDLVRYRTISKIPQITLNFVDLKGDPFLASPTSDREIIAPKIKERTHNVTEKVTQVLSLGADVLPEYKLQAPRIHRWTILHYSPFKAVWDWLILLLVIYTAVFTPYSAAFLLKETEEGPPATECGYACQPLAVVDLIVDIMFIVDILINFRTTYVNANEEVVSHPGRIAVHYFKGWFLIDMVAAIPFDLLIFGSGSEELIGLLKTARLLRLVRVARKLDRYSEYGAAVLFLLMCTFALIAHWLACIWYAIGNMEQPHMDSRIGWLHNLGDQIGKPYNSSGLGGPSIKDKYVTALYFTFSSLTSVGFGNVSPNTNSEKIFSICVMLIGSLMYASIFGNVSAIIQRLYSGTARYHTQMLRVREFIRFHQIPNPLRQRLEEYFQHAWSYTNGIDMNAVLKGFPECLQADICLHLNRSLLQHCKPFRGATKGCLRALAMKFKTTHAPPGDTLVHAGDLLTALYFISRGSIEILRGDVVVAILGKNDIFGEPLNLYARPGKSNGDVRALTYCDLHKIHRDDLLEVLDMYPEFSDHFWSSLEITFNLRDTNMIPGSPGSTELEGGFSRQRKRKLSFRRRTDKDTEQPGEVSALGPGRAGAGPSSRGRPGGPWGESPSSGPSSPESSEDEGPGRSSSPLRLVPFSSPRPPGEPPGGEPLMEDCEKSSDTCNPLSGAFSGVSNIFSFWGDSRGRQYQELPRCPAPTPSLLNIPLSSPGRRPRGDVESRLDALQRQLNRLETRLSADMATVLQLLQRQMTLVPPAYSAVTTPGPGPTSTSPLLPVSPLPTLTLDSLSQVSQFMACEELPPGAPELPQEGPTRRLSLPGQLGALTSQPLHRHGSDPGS", "assay": "Patch-clamp electrophysiological assay in hERG-transfected mammalian cells", "assay_type": "cell-based", "details": "read-out: IC50 for inhibition of hERG current"}, "[2]": {"assay": "Rat GLP 28-day repeat-dose intraperitoneal toxicity study", "assay_type": "in vivo, SD rats", "details": "for half-life / Tmax / NOAEL at 28 days / Cmax: rat; for half-life / Tmax / Cmax: plasma, ip; for half-life: read-out: estimated plasma elimination half-life; for NOAEL at 28 days: in vivo", "method": "TRX-E-002-1 peak plasma concentrations were observed 0.25 – 0.5 h after dosing, except for mid-dose females on Day 1 (T max = 1 h). […] Mean plasma TRX-E-002-1 concentrations were roughly proportional to dose and were generally higher in males than in females. […] AUClast values on Day 28 tended to be higher than those on Day 1, except in low-dose males and high-dose females (Table 2), indicating slight accumulation of TRX-E-002-1 with daily dosing.\nNo deaths were observed during the study. […] At 10 mg/kg, reduced quantity of faeces was observed during the first 1 or 2 weeks in all animals. During the recovery period, faeces were normal, although anogenital staining persisted up to 4 days after cessation of dosing in one high-dose male.\nBody weight gain was reduced over Days 1–28 in high-dose males, and during the first treatment week in mid-dose males and high-dose females. Mean body weights at the end of the dosing period were 99.5, 95.7 and 89.2% of control values in males at 0.5, 3 and 10 mg/kg/day, respectively; corresponding values in females were 99.8, 97.8 and 97.8%, respectively.\nTreatment-related macroscopic abnormalities at the terminal necropsy were limited to distention of the caecum and/or colon in both sexes at 10 mg/kg/day, and obstruction of the colon in 3/10 males at this dose level. No macroscopic findings were present after the recovery period. […] Thymic weight was reduced in males at 3 and 10 mg/kg/day and was increased in females at 10 mg/kg/day. Testicular and epididymal weights were still reduced in the 10 mg/kg/day group after the recovery period.\nSimilar changes were also seen after the 14-day recovery period (significant in males only).\nIn summary, the major toxicity finding in rats dosed once daily for 28 days with TRX-E-002-1 was degeneration of seminiferous tubules in the testes and of sperm in the epididymides at the high dose of 10 mg/kg/day. Other findings including transient faecal changes, reductions in weight gain and food consumption, serum biochemical changes, macroscopic lesions in the large intestine and atrophy of the salivary glands were considered non-adverse. The NOAEL was considered to be 3 mg/kg/day in male rats and 10 mg/kg/day in females. The greater sensitivity of male rats compared with females would appear to be associated with higher cumulative systemic exposure over the 28-day repeat-dose period."}, "[3]": {"assay": "Rat 14-day pilot repeat-dose intraperitoneal toxicity study", "assay_type": "in vivo", "details": "for deaths: 50 mg/kg/day; for AUC(0-t) / Cmax: plasma, Day 14, 5 mg/kg/day; for Cmax: read-out: plasma C max", "method": "Clinical signs at all dose levels were reduced and/or liquid faeces, and staining of the fur of the forelimbs or around the eyes, nose and snout. […] Macroscopic pathology findings were limited to the 50 mg/kg/day group and included small testes, small thymus and small spleen."}, "[4]": {"tested_on": "CYP2C9, CYP2C8, CYP2C19, CYP2B6, CYP3A4, CYP2D6, CYP2A6 and CYP1A2", "assay": "Inhibition of cytochrome P450 enzymes in human hepatic microsomes", "assay_type": "in vitro ADME", "details": "liver microsomes, read-out: IC50 values, range over the CYP enzymes", "from_the_text": "The potential for pharmacokinetic drug interactions resulting from inhibition of drug-metabolizing cytochrome P450 enzymes was investigated in human hepatic microsomes in vitro. TRX-E-002-1 inhibited multiple cytochrome P450 drug-metabolizing enzymes, including CYP2C9, CYP2C8, CYP2C19, CYP2B6, CYP3A4, CYP2D6, CYP2A6 and CYP1A2. […] In particular, the potential interaction between Cantrixil and paclitaxel, a CYP2C9 substrate frequently used in the treatment of ovarian cancer, needs to be considered."}, "A172": {"tested_on": "A172", "assay": "Cytotoxic activity in human cancer cell lines (72 h growth inhibition)", "assay_type": "cell-based", "details": "A 172, Glioblastoma, 72 h incubation, mean ± SEM", "from_the_text": "(§1) Activity in pancreatic and colorectal cancer cells and glioblastoma cells was more variable (Table 1)."}, "PC3": {"tested_on": "PC3", "assay": "Cytotoxic activity in human cancer cell lines (72 h growth inhibition)", "assay_type": "cell-based", "details": "PC-3, Prostate, 72 h incubation, mean ± SEM", "from_the_text": "as §1"}, "LOVO": {"tested_on": "LOVO", "assay": "Cytotoxic activity in human cancer cell lines (72 h growth inhibition)", "assay_type": "cell-based", "details": "Colorectal, 72 h incubation, mean ± SEM", "from_the_text": "as §1"}, "ASPC1": {"tested_on": "ASPC1", "assay": "Cytotoxic activity in human cancer cell lines (72 h growth inhibition)", "assay_type": "cell-based", "details": "Pancreatic, 72 h incubation, mean ± SEM", "from_the_text": "as §1"}, "Panc-1": {"tested_on": "Panc-1", "assay": "Cytotoxic activity in human cancer cell lines (72 h growth inhibition)", "assay_type": "cell-based", "details": "Pancreatic, 72 h incubation, mean ± SEM", "from_the_text": "as §1"}, "DU145": {"tested_on": "DU145", "assay": "Cytotoxic activity in human cancer cell lines (72 h growth inhibition)", "assay_type": "cell-based", "details": "DU-145, Prostate, 72 h incubation, mean ± SEM", "from_the_text": "as §1"}, "JAM": {"tested_on": "JAM", "assay": "Cytotoxic activity in human cancer cell lines (72 h growth inhibition)", "assay_type": "cell-based", "details": "Ovarian, 72 h incubation, mean ± SEM", "from_the_text": "as §1"}, "[5]": {"details": "female, Sprague-Dawley, rat, ip, females"}, "[6]": {"details": "male, Sprague-Dawley, rat, ip, males"}}, "note": "Where “and” joins values, the source holds several entries; their conditions need not be identical. Identical values can stand only once. Like-named read-outs stand apart in the source and are kept apart here.", "data": [{"smiles": "COc1cc([C@@H]2COc3c(ccc(O)c3C)[C@@H]2c2ccc(O)cc2)cc(OC)c1O", "note": "[TRX-E-002-1, (+) cis-4-(para-hydroxyphenyl)-7,4′-dihydroxy-3′,5′-dimethoxy-8-methylisoflavan]", "values": [{"measurement": "induction of cell death", "setting": "[1]", "value": "able to induce cell death"}, {"measurement": "IC50", "setting": "hERG current", "value": 17000, "unit": "nM"}, {"measurement": "decreases in total protein, albumin and globulin", "setting": "[2]; 10 mg/kg/day, males and females, end of 28-day treatment", "value": "≤ 8", "unit": "%"}, {"measurement": "deaths", "setting": "[2]; 0.5, 3 or 10 mg/kg/day up to 28 days", "value": "No deaths"}, {"measurement": "half-life", "setting": "[2]; both sexes, Sprague-Dawley, Day 1, across sexes and doses", "value": "42 to 84", "unit": "min"}, {"measurement": "half-life", "setting": "[2]; both sexes, Sprague-Dawley, Day 28", "value": "54 to 138", "unit": "min"}, {"measurement": "Tmax", "setting": "[2]; both sexes, Sprague-Dawley, all groups except mid-dose females on Day 1, read-out: time of peak plasma concentrations", "value": "15 to 30", "unit": "min"}, {"measurement": "NOAEL at 28 days", "setting": "[2]; female, SD", "value": 10, "unit": "mg/kg/day"}, {"measurement": "Cmax", "setting": "[2]; female, SD, Day 1, 0.5 mg/kg, females", "value": 33.4, "unit": "ng/mL"}, {"measurement": "Cmax", "setting": "[2]; female, SD, Day 1, 3 mg/kg, females", "value": 150, "unit": "ng/mL"}, {"measurement": "Tmax", "setting": "[2]; female, Sprague-Dawley, 3 mg/kg, mid-dose females, Day 1, read-out: T max", "value": 60, "unit": "min"}, {"measurement": "Cmax", "setting": "[2]; female, Sprague-Dawley, Day 1, 10 mg/kg, females", "value": 535, "unit": "ng/mL"}, {"measurement": "mean body weight at end of dosing period", "setting": "[2]; females, 0.5 mg/kg/day", "value": "99.8 % of control values"}, {"measurement": "mean body weight at end of dosing period", "setting": "[2]; females, 3 mg/kg/day", "value": "97.8 % of control values"}, {"measurement": "mean body weight at end of dosing period", "setting": "[2]; females, 10 mg/kg/day", "value": "97.8 % of control values"}, {"measurement": "mean body weight after the 14-day recovery period", "setting": "[2]; high-dose males", "value": "93.6 % of control value"}, {"measurement": "NOAEL at 28 days", "setting": "[2]; male, SD", "value": 3, "unit": "mg/kg/day"}, {"measurement": "Cmax", "setting": "[2]; male, SD, Day 1, 3 mg/kg, males", "value": 181, "unit": "ng/mL"}, {"measurement": "Cmax", "setting": "[2]; male, SD, Day 1, 10 mg/kg, males", "value": 780, "unit": "ng/mL"}, {"measurement": "Cmax", "setting": "[2]; male, Sprague-Dawley, Day 1, 0.5 mg/kg, males", "value": 35.4, "unit": "ng/mL"}, {"measurement": "mean body weight at end of dosing period", "setting": "[2]; males, 0.5 mg/kg/day", "value": "99.5 % of control values"}, {"measurement": "mean body weight at end of dosing period", "setting": "[2]; males, 3 mg/kg/day", "value": "95.7 % of control values"}, {"measurement": "mean body weight at end of dosing period", "setting": "[2]; males, 10 mg/kg/day", "value": "89.2 % of control values"}, {"measurement": "deaths", "setting": "[3]; females", "value": "8/11"}, {"measurement": "deaths", "setting": "[3]; males", "value": "9/11"}, {"measurement": "NOAEL at 14 days", "setting": "[3]; both sexes, Sprague-Dawley, rat, in vivo, ip", "value": 5, "unit": "mg/kg/day"}, {"measurement": "AUC(0-t)", "setting": "[3]; [5]", "value": 665, "unit": "ng·h/mL"}, {"measurement": "Cmax", "setting": "[3]; [5]", "value": 257, "unit": "ng/mL"}, {"measurement": "doses with reduced body weight gain", "setting": "[3]; females", "value": "≥ 15", "unit": "mg/kg/day"}, {"measurement": "AUC(0-t)", "setting": "[3]; [6]", "value": 1870, "unit": "ng·h/mL"}, {"measurement": "Cmax", "setting": "[3]; [6]", "value": 909, "unit": "ng/mL"}, {"measurement": "doses with reduced body weight gain", "setting": "[3]; males", "value": "≥ 5", "unit": "mg/kg/day"}, {"measurement": "IC50", "setting": "[4]", "value": "1.5 µM to 75 µM and 0.612 µg/mL to 30.6 µg/mL"}, {"measurement": "IC50", "setting": "A172", "value": "51 ± 2", "unit": "nM"}, {"measurement": "IC50", "setting": "PC3", "value": "96 ± 77", "unit": "nM"}, {"measurement": "IC50", "setting": "LOVO", "value": "45 ± 5", "unit": "nM"}, {"measurement": "IC50", "setting": "LOVO; Homo sapiens, LoVo, 72 h", "value": 84, "unit": "nM"}, {"measurement": "IC50", "setting": "ASPC1", "value": "227 ± 55", "unit": "nM"}, {"measurement": "IC50", "setting": "Panc-1", "value": "467 ± 378", "unit": "nM"}, {"measurement": "IC50", "setting": "DU145", "value": "41 ± 14", "unit": "nM"}, {"measurement": "IC50", "setting": "JAM", "value": "65 ± 2", "unit": "nM"}]}]}
